Laboratory results published in a melting point compilation (Tetko et al.; mined from patent text by program, amines drawn as free bases though some values may be those of a salt).

Structure (SMILES) | melting point
C[C@H](NC(=O)OCc1ccccc1)C(=O)N1CCC[C@H]1C(=O)Nc1ccccc1 | 138 to 139 °C
Cc1n[nH]c2c1C(=O)CC(c1ccccc1O)C2 (stereo unspecified) | 252 to 255 °C
O=C(N[C@@H](Cc1ccccc1)C[C@H](O)[C@H](Cc1ccccc1)NC(=O)OCc1cscn1)OCc1cscn1 | 64 to 66 °C
Cc1cccnc1NN | 119 °C
CN(C)C(N)=Nc1ccccc1N1CCOCC1 | 143 to 144 °C
NC(=NCC(F)(F)F)Nc1ccn(CCCCO)n1 | 105 to 106 °C
O=C(NCCOc1ccc(CC(Oc2cccc(F)c2)C(=O)O)cc1)c1ccc(-c2ccccn2)cc1 (stereo unspecified) | 136 to 138 °C
CCCN1CCC=C(c2cccc3[nH]ccc23)C1 | 168 °C
CCCCNc1cc(CN(Cc2ccccc2)C(=O)OCC)cc(S(N)(=O)=O)c1Oc1ccccc1 | 82 to 83 °C
CCCCCCCC(=O)Oc1ccc(-c2ccc(C#N)cc2)cc1 | 77.5 to 77.9 °C
Oc1cnccc1N=CN1CCCCCC1 | 117 to 118 °C
Cc1cc2n(c1)Cc1cc(Cl)ccc1N=C2N1CCN(CC(C)(C)C(=O)O)CC1 | 246 °C
O=C1Cc2c(Cl)cccc2Sc2ccc(C(F)(F)F)cc21 | 105 to 108 °C
CCCCCCCCCCCCCCOc1cccc(CC(=O)OC)c1 | 31 to 33 °C
CCCCCCCCNc1c(Nc2ccc(CC(C)NC[C@H](O)COc3cccc4[nH]c5ccccc5c34)cc2)c(=O)c1=O (stereo partly specified) | 125 to 131 °C
CC1=CN2C(=NC(c3ccc(C)cc3)C2C(=O)C(=O)O)C=C1 (stereo unspecified) | 190 to 195 °C
COc1c(Br)cccc1[N+](=O)[O-] | 55 to 56 °C
N#Cc1nc(NC2CCCCC2)c2ncn(CCn3ccnc3)c2n1 | 115 to 117 °C
COc1ccccc1S(=O)C1CC(=O)N1CC(=O)CCc1ccccc1 (stereo unspecified) | 129 to 131 °C
O=C(NC(=O)c1ccccc1F)NC1CN2CCC1CC2 (stereo unspecified) | 187 to 188 °C
CC1=C(c2ccccc2)C(c2ccccc2OCc2ccccc2)C([N+](=O)[O-])=C(C)N1 (stereo unspecified) | 189 °C
Cc1ccc2cc3nc4cccc(Cl)c4c-3[nH]c2c1 | 193 to 194 °C
CCN(Cc1ccc(OC(C)(C)C(=O)O)c(C)c1)c1cc(-c2ccc(Cl)cc2)nn1C | 208 °C
Nc1nc2ccccc2n1S(=O)(=O)C=Cc1ccccc1 | 191 °C
CC1CCc2c(N3CCOCC3)c(F)cc3c(=O)c(C(=O)O)cn1c23 (stereo unspecified) | 279 to 280 °C
N#Cc1ccc(N)cc1Sc1ccccc1 | 69 to 71 °C

Structure (SMILES) | melting point
Cc1cc(C2(C(F)(F)F)CC(c3ccc(F)cc3)=NO2)ccc1NC(=O)c1cccc(I)c1C(=O)NC(C)C (stereo unspecified) | 128 to 130 °C
CCCC(=O)C(=CNc1ccc(OCC)c(C)n1)C(=O)OCC | 117 to 120 °C
CC(C)C=CC1(C(F)(F)F)OCC(=O)Nc2ccc(F)c(F)c21 (stereo unspecified) | 159 to 160 °C
C=CCSc1sc(-c2cc[nH]n2)c2c1C(=O)CC(C)(C)C2 | 164 to 167 °C
COc1ccc(-c2nn(Cc3ccccc3)c(=O)cc2-c2ccc(OC)c(F)c2)cc1 | 110 to 112 °C
Ic1cccc2c(SSc3cccc4c(I)cccc34)cccc12 | 202 to 203 °C
Cc1ncc(OC(=O)C2(C3CCCCC3)CCCCC2)cn1 | 52 to 55 °C
O=C(O)c1ccccc1Sc1ccc(C(O)=NCc2ccccc2)c(C(=O)O)c1 | 289 to 294 °C
CC(C)n1nc(-c2sc(C(=O)NC3CC3)nc2-c2ccccc2F)ccc1=O | 134 to 135 °C
Cc1cc(O)cc2c1CCC2(C)C | 80 to 81 °C
O=C(N[C@@H](Cc1c[nH]cn1)C(=O)OCc1ccsc1)C(Cc1cccc2ccccc12)Cc1cccc2ccccc12 | 200 to 203 °C
CCOP(=O)(OCC)N1CCN(c2cc3c(cc2F)c(=O)c(C(=O)O)cn3C2CC2)CC1 | 192 to 193 °C
CC1(c2ccccc2)CNC(=O)O1 (stereo unspecified) | 144 to 145 °C
Cn1c2cccc(C#N)c2c2nc3ccccc3nc21 | 237 °C
CC(=O)SCCc1nc[nH]n1 | 84 to 86 °C
C#CCOc1ccc(OC)cc1-c1nc2ncccc2[nH]1 | 220 °C
CN1CCN(Cc2cnc(S)n2Cc2cc(F)cc(F)c2)CC1 | 200 to 201 °C
COc1ccc(C2COc3c(ccc(O)c3C)C2O)cc1 (stereo unspecified) | 162 °C
CC(=O)NC[C@H]1CN(c2ccc(N3CC(N(C)CCF)C3)c(F)c2)C(=O)O1 | 126 to 127 °C
O=C1NN=C(c2ccc3c(c2)CCN(C2CCC2)CC3)C2CCCC12 (stereo unspecified) | 198 to 201 °C
COc1cc(C)nc(-c2cnnn2NS(=O)(=O)c2ccccc2Cl)n1 | 139 °C
CC(=O)NC[C@H]1CN(c2ccc(N3CCN(C(=O)CCCC(=O)c4ccc(NC(=O)CN)cc4)CC3)c(F)c2)C(=O)O1 | 178 to 181 °C
Oc1ccc2c(c1)C[C@@H](NC[C@H](O)c1ccc(OCc3ccccc3)cc1)CC2 | 132 to 134 °C
Cc1cc(-c2c(-c3ccc(F)cc3)nn3cccnc23)ccn1 | 164 to 166 °C
C[Si](C)(C)C1=CC(=O)C([Si](C)(C)C)=CC1=O | 180 °C
COc1ccc(-c2ccc(Br)cc2[N+](=O)[O-])cc1 | 130 to 131 °C

Structure (SMILES) | melting point
CN(C)CCC(Oc1ccc(C(F)(F)F)cc1)c1ccccc1 (stereo unspecified) | 117 to 119 °C
CC(C)c1nc2cc(COc3ccc(CC4SC(=O)NC4=O)cc3)ccc2o1 (stereo unspecified) | 128 to 131 °C
C=Cc1cccc2[nH]cc(S(=O)(=O)c3ccccc3)c12 | 125 to 128 °C
CCCCc1cnc(-c2ccc(C#N)c(F)c2)nc1 | 87 °C
O=C(N[C@@H](Cc1ccccc1)C(=O)N[C@@H](Cc1cncn1COCc1ccccc1)C(=O)O)C1CCCC1 | 195 to 197 °C
COC(=O)c1c(C)nc(C)c(C(=O)OC)c1-c1ccccc1F | 94 to 96 °C
CCCCCc1c(O)ccc2c1OCCC2=O | 132 to 134 °C
CC(CO)N1C(=O)N(c2ccc(Cl)cc2)CC1C (stereo unspecified) | 108 to 110 °C
CC(=O)NC[C@H]1CN(c2ccc(N3CCC(c4noc(C)n4)CC3)c(F)c2)C(=O)O1 | 136 to 138 °C
CCNC(=O)n1nc(Oc2c(F)cc(C(F)(F)F)cc2Cl)cc1C | 58 to 60 °C
CS(=O)c1ccc(-c2nn(Cc3ccccc3)c(=O)cc2-c2ccc(F)cc2)cc1 (stereo unspecified) | 198 °C
O=C(O)CNc1nccc(-c2nc(=O)c3ccccc3s2)n1 | 283 to 284 °C
COc1cc(Nc2ccnc(Nc3cc(OC)c(OC)c(OC)c3)n2)cc(OC)c1 | 180 °C
CCOC(=O)C(OC)c1nn(-c2ccc(Cl)cc2)c2c1CCCC2 (stereo unspecified) | 86 to 87 °C
CCCCn1c(=O)c2nc(-c3ccc(/C=C/C(=O)O)cc3)[nH]c2n(C)c1=O | > 300 °C
CCOC(=O)/C=C(/c1ccc(OC)cc1)c1cc(Cl)ccc1Cl | 98 to 100 °C
Clc1ccc(-c2ccc[nH]2)cc1Cl | 49 to 51 °C
Cc1c(NC(=O)C(CSC(=O)c2cccs2)Cc2ccccc2)cccc1C(=O)O (stereo unspecified) | 164 to 167 °C
CC(C(O)c1ccccc1)n1nnc2cc3c(cc2c1=O)OC1CCCN1C3=O (stereo unspecified) | 235 to 238 °C
CCC(=O)OC1C(=O)N(CCNC)c2ccc(C)cc2SC1c1ccc(C)cc1 (stereo unspecified) | 128 to 132 °C
CNC(=O)N(C)C(=O)Nc1ccccc1 | 93 to 95 °C
CCN(C(=O)n1nnc2cc(C)cc(C)c21)c1ccccc1 | 90 °C
CN1CC(=O)Nc2cccc(I)c2C1=O | 214 to 217 °C
CNC(=O)OC1CCN(C(=O)Oc2ccc(Oc3ccccc3)cc2)CC1 | 117 to 119 °C
Nc1c([N+](=O)[O-])cnn1-c1c(Cl)cc(Cl)cc1Cl | 218 to 220 °C
COc1ccccc1Oc1c(Cl)nc(N2CCOCC2)nc1OCCOCc1ccccc1 | 133 to 134 °C

Structure (SMILES) | melting point
CC(=O)Nc1cnc(-c2ccccc2)nc1N | 224 to 225 °C
CN1CCN(c2cccc3c2C[C@H](NC(=O)c2ccc(N4CCCCC4)cc2)CC3)CC1 | 196 to 198 °C
O=C(NC1CC1)c1cccc(-c2cccn3c(=O)n(Cc4cccc(C(F)(F)F)c4)nc23)c1 | 157 to 158 °C
COc1c(SCCCN2CCC(Cc3ccccc3)CC2)ccnc1CSc1nc2ccccc2[nH]1 | 73 to 75 °C
Cc1nc2ccccc2c2c1OC(C)CN2 (stereo unspecified) | 169 to 170 °C
CCCCCCCCCCCc1ncc(C(=O)O)s1 | 93 °C
COc1ccccc1NC(=O)NC1N=C(c2ccccc2)c2ccccc2N(C)C1=O (stereo unspecified) | 258 to 260 °C
CS(=O)(=O)Nc1cccc(Nc2nc(NC3CN4CCC3CC4)c3nc[nH]c3n2)c1 (stereo unspecified) | 200 to 204 °C
CN1C(=O)CCC1(O)c1cccc(C(F)(F)F)c1 (stereo unspecified) | 137 to 139 °C
O=C(NCC1CCN(CC2(C(=O)O)CCCC2)CC1)N1C(=O)C2(CCCC2)c2ccccc21 | 188 °C
CC(C)(C)OC(=O)N1CCCC(O)(C#Cc2cccc(Cl)c2)C1 (stereo unspecified) | 128 to 129 °C
Cc1cc(C(=O)N2Cc3cccn3Cc3ccccc32)ccc1C1=CCCCC1(C)C | 131 °C
CNc1c(F)cc2c(=O)c(C(=O)O)cn(-c3ccc(F)c(OC)c3)c2c1Cl | 250 to 253 °C
CN1CCC(c2c[nH]c3ccc(NC(=O)c4ccc(Cl)s4)nc23)CC1 | 118 to 120 °C
OCc1nccn1C(c1ccccc1)(c1ccccc1)c1ccccc1 | 243 to 244 °C
N#CCNC(=O)C1(NC(=O)c2ccc(CBr)cc2)CCCCC1 | 194 to 196 °C
CCCCC[N+]([O-])=[N+]([O-])CC | 184 to 185 °C
COc1ccc(CC(=Nc2ccccc2)NC(=S)NCCO)cc1 | 117 to 119 °C
C=C(C)n1c(C)c(-c2ccc(F)cc2)c2cccnc21 | 84 to 87 °C
CS(=O)(=O)Nc1ccc2c(c1)S(=O)(=O)NC(C1CCCCC1)N2 (stereo unspecified) | 255 to 258 °C
COc1cccc(Nc2nc(-c3ccccc3)c(C(=O)c3sc(Nc4cccc(OC)c4)nc3-c3ccccc3)s2)c1 | > 285 °C
Cc1cc(SC(Sc2cc(C)c(O)c(C(C)(C)C)c2)Sc2cc(C)c(O)c(C(C)(C)C)c2)cc(C(C)(C)C)c1O | 171 to 172 °C
COc1cccc(C(=O)c2sccc2Br)c1 | 40 °C
